Experimental data reported in PubChem BioAssay (NCI).
Where “and” joins values, the source holds several entries; their conditions need not be identical. Equal entries are not always repeated.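 Where inhibition never reached the appropriate level, the endpoint shown equals the highest concentration tested. Otherwise, values were interpolated linearly from a five-concentration, 48-hour dose response in 96-well plates. Abbreviation: GI50, concentration required for 50% inhibition of growth. Definition used: TGI = concentration required for complete inhibition of growth.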

Assays:
Assay in all cases: DTP human tumour cell line panel, 48 h
OVCAR-8 ovarian = tested on: OVCAR-8 ovarian
HOP-92 NSCLC = tested on: HOP-92 NSCLC
K-562 leukemia = tested on: K-562 leukemia
RXF 393 renal = tested on: RXF 393 renal
SK-MEL-2 melanoma = tested on: SK-MEL-2 melanoma
KM12 colon = tested on: KM12 colon
SR leukemia = tested on: SR leukemia
HT29 colon = tested on: HT29 colon
ACHN renal = tested on: ACHN renal
BT-549 breast = tested on: BT-549 breast

| Compound | GI50 (OVCAR-8 ovarian) | TGI (OVCAR-8 ovarian) | GI50 (HOP-92 NSCLC) | TGI (HOP-92 NSCLC) | GI50 (K-562 leukemia) [µM] | GI50 (RXF 393 renal) | TGI (RXF 393 renal) | GI50 (SK-MEL-2 melanoma) | TGI (SK-MEL-2 melanoma) | GI50 (KM12 colon) | TGI (KM12 colon) | GI50 (SR leukemia) | GI50 (HT29 colon) | TGI (HT29 colon) | GI50 (ACHN renal) | TGI (ACHN renal) | GI50 (BT-549 breast) | TGI (BT-549 breast) | TGI (K-562 leukemia) [µM] | TGI (SR leukemia) [µM] |
| --- | --- | --- | --- | --- | --- | --- | --- | --- | --- | --- | --- | --- | --- | --- | --- | --- | --- | --- | --- | --- |
| CC[C@@]1(OC(=O)CN)C(=O)OCc2c1cc1n(c2=O)Cc2cc3c(N)cccc3nc2-1 | < 0.01 µM | 0.153 µM | 0.0371 µM | > 100 µM | < 0.0367 | 0.0352 µM | 0.476 µM | 0.132 µM | 0.49 µM | 0.158 µM | 1.92 µM | < 0.01 µM | 0.0346 µM | > 100 µM | < 0.01 µM | 0.0287 µM | 0.0372 µM | 1.63 µM | – | – |
| CC1(O)CC(c2nc(-c3ccc4ccc(-c5ccccc5)nc4c3)c3c(N)nccn23)C1 (centres undefined) | 9.34 µM and > 10 µM | 80 µM and > 10 µM | 0.0272 µM and 0.0625 µM | 1.15 µM and 1.43 µM | – | 3.71 µM and 4.96 µM | 13.7 µM and > 10 µM | 10.1 µM and 6.63 µM | 60.6 µM and > 10 µM | 4.31 µM and 3.88 µM | 19.4 µM and > 10 µM | 15.7 µM and 7.92 µM | 0.105 µM and 0.0588 µM | 21.5 µM and > 10 µM | 7.44 µM and 7.79 µM | > 100 µM | 6.92 µM and 5.87 µM | 24.3 µM and > 10 µM | > 100 | > 75.2 |
| Oc1ccccc1CNCC12CC3CC(CC(C3)C1)C2 | 79.9 µM | > 100 µM | 9.64 µM | 37.9 µM | 5.39 | 16.7 µM | 40.3 µM | 20.2 µM | 41.2 µM | 23.7 µM | 66 µM | 20.4 µM | 15.2 µM | 47.7 µM | 39.6 µM | > 100 µM | 14 µM | 74.8 µM | > 100 | 58.6 |
| COC(=O)CCC1CCC(c2cc(F)ccc2F)(S(=O)(=O)c2ccc(Cl)cc2)CC1 (centres undefined) | > 100 µM | > 100 µM | 15.4 µM | > 100 µM | > 100 | 55.4 µM | > 100 µM | 62 µM | > 100 µM | 62.1 µM | > 100 µM | > 100 µM | 82.2 µM | > 100 µM | > 100 µM | > 100 µM | 70.6 µM | > 100 µM | > 100 | > 100 |
| Oc1ccccc1C=Nc1nc(SCc2ccccc2)nc2[nH]ncc12 | 46.8 µM | > 100 µM | 12.4 µM | 71.1 µM | 35.2 | 32.5 µM | > 100 µM | > 100 µM | > 100 µM | 37.5 µM | > 100 µM | 22.5 µM | 54.6 µM | > 100 µM | 41.7 µM | > 100 µM | > 100 µM | > 100 µM | > 100 | > 100 |
| CCCCCCCCCCC(C(O)c1ccccc1)N1CCCCC1 (centres undefined) | 3.29 µM | 13 µM | 1.82 µM | 3.83 µM | 2.19 | 1.76 µM | 3.4 µM | 2.25 µM | 4.84 µM | 1.29 µM | 2.72 µM | 2.13 µM | 1.72 µM | 4.41 µM | 2.19 µM | 4.95 µM | 4.57 µM | 16.5 µM | 5.93 | 5.34 |
| CCN1C(=O)N(c2ccccc2)C2NC(=S)N(/N=C/C=C/c3ccccc3)C21 (centres undefined) | 0.429 µM | > 100 µM | 4.66 µM | > 100 µM | 0.155 | 0.345 µM | > 100 µM | 0.345 µM | > 94.2 µM | 0.358 µM | > 100 µM | 0.114 µM | 0.295 µM | > 100 µM | 0.763 µM | > 100 µM | 0.643 µM | > 24.7 µM | > 100 | > 100 |
| COc1ccc(-n2cc(-c3cc(OC)c(OC)c(OC)c3)nc2SCc2ccccc2)cc1OC | > 83.6 µM | > 100 µM | 6.45 µM | > 29.5 µM | 54.7 | 56.3 µM | > 100 µM | > 100 µM | > 100 µM | > 100 µM | > 100 µM | 44.1 µM | > 100 µM | > 100 µM | > 92.9 µM | > 100 µM | > 82.7 µM | > 100 µM | > 100 | > 100 |
| COc1ccc(S(=O)(=O)Nc2cc(/C=C\c3cc(OC)c(OC)c(OC)c3)ccc2OC)cc1 | 0.276 µM | > 100 µM | 0.0974 µM | 12 µM | 0.053 | 0.0814 µM | > 100 µM | 0.0803 µM | 93 µM | 0.0738 µM | > 100 µM | 0.0709 µM | 0.0809 µM | 8.22 µM | 0.0587 µM | 17.3 µM | 0.197 µM | > 100 µM | > 100 | 4.18 |
| COc1ccc(C(=O)/C=C/c2ccc3c(c2)OCO3)c(OCc2ccccc2)c1 | – | > 100 µM | – | > 100 µM | – | – | > 100 µM | – | > 100 µM | – | > 100 µM | – | – | > 100 µM | – | > 100 µM | – | > 100 µM | > 100 | > 27.1 |
| CN(C)CCCN1c2ccccc2C(C)(C)c2ccccc21 | – | 29.8 µM | – | 31.6 µM | – | – | 26.8 µM | – | 30.1 µM | – | 28.3 µM | – | – | 24 µM | – | 28.6 µM | – | 28.1 µM | 27.1 | 27.1 |
| COc1ccc(/C=C(\C#N)n2nnc3ccccc32)cc1 | 0.416 µM | > 100 µM | 0.272 µM | 3.47 µM | 0.043 | 0.15 µM | 0.607 µM | 0.437 µM | 51.1 µM | 0.0948 µM | > 21.7 µM | 0.0555 µM | 0.0453 µM | > 100 µM | 0.434 µM | 17.2 µM | 1.11 µM | 17.1 µM | > 100 | > 39.6 |
| COc1ccccc1N1CCN(CCc2c[nH]c3cc4c(cc23)OCO4)CC1 | 42 µM | > 100 µM | 14.3 µM | > 100 µM | 24.4 | 17.9 µM | 92.9 µM | 21.3 µM | 56.3 µM | 27.3 µM | > 100 µM | 23.8 µM | 3.39 µM | > 100 µM | 21.3 µM | > 100 µM | 23.3 µM | > 100 µM | > 100 | 99 |
| Oc1[nH]c2c(Br)cccc2c1C1=Nc2ccccc2/C1=N/OCCN1CCCC1 | 0.792 µM | – | 1.04 µM | 3.12 µM | 0.424 | 0.942 µM | 9.66 µM | 2.21 µM | – | 0.708 µM and 0.501 µM | > 100 µM | 0.373 µM | 0.561 µM | 6.6 µM | 0.414 µM and 0.379 µM | 2.12 µM and 3.8 µM | 1.24 µM | 2.85 µM | – | 1.77 |
| COc1cc(/C=N/NC(=O)c2cnn3c2NC(c2ccccc2)C3)ccc1Oc1ccccc1 (centres undefined) | 2.57 µM | 12.2 µM | 2.06 µM | 8.58 µM | 0.571 | 1.5 µM | 4.53 µM | 1.14 µM | 4.89 µM | 0.528 µM | 3 µM | 0.488 µM | 0.432 µM | 1.76 µM | 1.33 µM | 7.31 µM | 0.864 µM | 3.16 µM | 18.6 | 10 |
| COc1cccc(OCCCN)c1-c1cc(Nc2cnc(C#N)cn2)n[nH]1 | 0.00591 µM | 1.44 µM | < 0.0166 µM | 8.76 µM | 0.00444 | 0.00496 µM | 0.0616 µM and 0.156 µM | 0.00476 µM | 0.0644 µM | 0.0179 µM and 0.017 µM | 11.1 µM | 0.0032 µM | 0.0289 µM and 0.0238 µM | 1.28 µM | 0.00332 µM | 0.0146 µM | 0.0797 µM and 0.0856 µM | 8.2 µM | 12.8 | 1.25 |
| Cc1cc(Cc2cc(C)cc(C(C)(C)C)c2O)c(O)c(Cc2cc(C)cc(C(C)(C)C)c2O)c1 | – | 15.1 µM | – | 9.36 µM | – | – | 8.21 µM | – | 6.7 µM | – | 10 µM | – | – | 7.78 µM | – | 11.3 µM | – | 10.6 µM | 6.33 | > 28.6 |
| Cc1cc(=O)[nH]c2cc3c(c4c(n3Cc3ccc(Cl)cc3Cl)CC(C)(C)CC4=O)c(O)c12 | > 100 µM | > 100 µM | 54.2 µM | > 100 µM | > 100 | > 100 µM | > 100 µM | > 100 µM | > 100 µM | > 100 µM | > 100 µM | 25.2 µM | > 100 µM | > 100 µM | > 100 µM | > 100 µM | 19.6 µM | 64.2 µM | > 100 | > 100 |
| Cc1cc(NCc2cc(Nc3ccnc4cc(Cl)ccc34)ccc2F)nc(N2CCN(C)CC2)n1 | 3.14 µM | 12.9 µM | 1.35 µM | 3.52 µM | 0.386 | 1.26 µM | 2.94 µM | 2.03 µM | 3.93 µM | 2.11 µM | 6.5 µM | 0.245 µM | 1.72 µM | 5.13 µM | 2.16 µM | 5.38 µM | 1.77 µM | 3.65 µM | 2.11 | 1.03 |
